Patent US8227491B2, “5-(3,4-dichloro-phenyl)-N-(2-hydroxy-cyclohexyl)-6-(2,2,2-trifluoro-ethoxy)-nicotinamide and salts thereof” (Hoffmann-La Roche Inc., priority 2009, dated 2012)

What was measured:
HDL cholesterol levels = assay: Effects on plasma lipid levels in hamsters; type: in vivo; conditions: male hamsters, 30 mg/kg p.o. once daily for five days, blood 2 hours after final treatment, 4 hour-fasted
Procedure: Efficacy of compounds in modulating plasma lipid levels was determined in hamsters after 5 days of daily administration of compounds. Male hamsters of 6-8 weeks of age were used in the studies. After one week of acclimation, blood samples were collected from 4 hour-fasted animals for plasma lipid determination. Animals were then assigned to treatment groups based on HDL-cholesterol levels. Compounds were administered by gavage, once daily for five days. Control animals received vehicle alone. Blood was collected on day five from 4 hour-fasted hamsters, 2 hours after a final treatment, for plasma lipid analysis. Total cholesterol, HDL-cholesterol, LDL-cholesterol, and triglycerides were determined using colorimetric enzymatic assays (Roche Diagnostic GmbH, Mannheim, Germany). HDL-cholesterol was also determined after selective precipitation of HDL from plasma by standard procedures.

[1] = target: T1, human cannabis CB2 receptor (Homo sapiens, UniProt P34972); assay: CB2 receptor affinity, [3H]-CP-55,940 radioligand binding on HEK cell membranes; conditions: Ki calculated from IC50 (Cheng-Prusoff)
T1 construct: expressed in transfected cells; host or cells: human embryonic kidney (HEK) cells, Semliki Forest Virus system, membrane preparations
T1 sequence (P34972 whole entry): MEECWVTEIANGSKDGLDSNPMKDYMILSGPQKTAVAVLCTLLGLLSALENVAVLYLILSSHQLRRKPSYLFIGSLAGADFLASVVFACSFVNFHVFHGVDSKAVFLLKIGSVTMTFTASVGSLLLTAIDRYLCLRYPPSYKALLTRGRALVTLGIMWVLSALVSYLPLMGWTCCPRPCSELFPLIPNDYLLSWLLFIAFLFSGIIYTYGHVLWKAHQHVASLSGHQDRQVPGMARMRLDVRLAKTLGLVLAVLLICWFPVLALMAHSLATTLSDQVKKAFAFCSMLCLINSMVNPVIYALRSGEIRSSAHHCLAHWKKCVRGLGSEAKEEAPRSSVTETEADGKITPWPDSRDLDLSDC
Procedure: (§1) The affinity of the compounds of the invention for cannabinoid CB2 receptors was determined using membrane preparations of human embryonic kidney (HEK) cells in which the human cannabis CB2 receptor is transiently transfected using the Semliki Forest Virus system in conjunction with [3H]-CP-55,940 as radioligand. After incubation of freshly prepared cell membrane preparation with the [3H]-ligand, with or without addition of compounds of the invention, separation of bound and free ligand was performed by filtration over glass fiber filters. Radioactivity on the filter was measured by scintillation counting.
(§2) Ki values were calculated from the IC50 using the Cheng-Prusoff equation.

[2] = target: T2, human cannabis CB1 receptor (Homo sapiens, UniProt P21554); assay: CB1 receptor affinity, [3H]-CP-55,940 radioligand binding on HEK cell membranes; conditions: Ki calculated from IC50 (Cheng-Prusoff)
T2 construct: expressed in transfected cells; host or cells: human embryonic kidney (HEK) cells, Semliki Forest Virus system, membrane preparations
T2 sequence (P21554 whole entry): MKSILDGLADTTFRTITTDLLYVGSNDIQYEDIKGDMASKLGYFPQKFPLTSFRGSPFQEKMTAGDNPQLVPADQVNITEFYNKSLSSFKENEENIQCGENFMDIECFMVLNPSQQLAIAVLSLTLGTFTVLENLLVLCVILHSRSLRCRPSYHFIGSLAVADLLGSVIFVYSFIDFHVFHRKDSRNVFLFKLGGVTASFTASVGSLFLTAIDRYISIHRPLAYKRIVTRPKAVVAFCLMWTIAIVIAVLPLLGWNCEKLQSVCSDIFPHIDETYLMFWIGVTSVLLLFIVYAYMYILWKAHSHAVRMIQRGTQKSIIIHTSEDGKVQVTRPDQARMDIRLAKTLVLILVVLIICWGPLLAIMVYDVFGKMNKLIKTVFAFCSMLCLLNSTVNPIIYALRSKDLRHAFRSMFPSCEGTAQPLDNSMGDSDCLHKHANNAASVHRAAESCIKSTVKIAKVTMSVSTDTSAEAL
Procedure: as §1, with “cannabinoid” for “cannabinoid CB2”, “CB1” for “CB2”
as §2

| Ki [1] [µM] | Ki [2] [µM] | Compound | HDL Cholesterol levels [as % compared to control] @ 30 mg/kg p.o. of compound (HDL cholesterol levels) |
| --- | --- | --- | --- |
| > 10 | > 10 | O=C(N[C@H]1CCCC[C@H]1O)c1cnc(OCC(F)(F)F)c(-c2ccc(Cl)c(Cl)c2)c1 [5-(3,4-Dichloro-phenyl)-N-((1S,2R)-2-hydroxy-cyclohexyl)-6-(2,2,2-trifluoro-ethoxy)-nicotinamide] | +121.9 ± 21.0% |
| > 10 | 1.3 | O=C(N[C@@H]1CCCC[C@H]1O)c1cnc(OCC(F)(F)F)c(-c2ccc(Cl)c(Cl)c2)c1 [5-(3,4-dichloro-phenyl)-N-((1R,2R)-2-hydroxy-cyclohexyl)-6-(2,2,2-trifluoro-ethoxy)-nicotinamide] | +77.9 ± 11.1% |
| > 10 | 0.028 | O=C(N[C@@H]1CCCC[C@H]1O)c1cnc(OCC(F)(F)F)c(-c2ccc(Cl)cc2)c1 [5-(4-Chloro-phenyl)-N-((1R,2R)-2-hydroxy-cyclohexyl)-6-(2,2,2-trifluoro-ethoxy)-nicotinamide, reference compound] | +103.8 ± 14.7% |
